In patent US20110059940A1, “2-Aryl Glycinamide Derivatives” (Bristol- Myers Squibb Company, priority 2008, published 2011):
Where two headings read alike, the source gives them in different places.

Tested on: β-amyloid peptide formation in human H4 cells
Assay: Inhibition of β-amyloid peptide (Aβ) formation in H4 cells overexpressing HPLAP-APP fusion protein
Assay type: cell-based
Description: γ-Secretase inhibitors were also evaluated using in vitro assays based on the inhibition of Aβ formation in cultured cells. Cultured human cell lines, such as HEK293 and H4 cells, which express APP and γ-secretase activity or transfected derivative cell lines that overexpress wild-type APP, mutant APP, or APP fusion proteins will secrete Aβ peptides into the culture media that can be quantified as previously outlined (Dovey, H. et al., J. Neurochem. 2001, 76, 173). The incubation of these cultured cells with γ-secretase inhibitors decreases the production of Aβ peptides. For instance, H4 cells stably transfected to overexpress the HPLAP-APP fusion protein described above were grown as above, detached, and adjusted to 2×10^5 cells/ml. 100 μl of the resulting suspension was then added to each well of a 96-well plate. After 4 hrs, the media was removed and replaced with 100 μl serum-free media containing various dilutions of the test compound. Plates were then incubated for 18 hrs at 37° C. and a 100 μl aliquot of the tissue culture supernatant was removed for determination of Aβ levels using time-resolved fluorescence of the homogenous sample as outlined above. The extent of Aβ inhibition was used to calculate the IC50 value for the test compound.
Representative compounds were evaluated in the above assay and were determined to inhibit Aβ formation.

[1] = class symbol, read-out: Binding affinity (IC50 in nM), activity class
[2] = number in parentheses, read-out: Binding affinity (IC50 in nM)

Row | IC50 [1] [nM] | IC50 [2] [nM] | Compound
1 | 0.25 to 50 | 12.4 | N#Cc1ccc(CN(C(C(N)=O)c2cc(F)cc(F)c2)S(=O)(=O)c2ccc(Cl)cc2)cc1 (stereo not drawn) [Example 16, α-[(4-Chlorobenzenesulfonyl)(4-cyanophenylmethyl)amino]-3,5-difluorobenzene-acetamide]
2 | 50 to 500 | 127 | CCNC(=O)c1ccc(CN(C(C(N)=O)c2ccccc2C)S(=O)(=O)c2ccc(Cl)cc2)cc1 (stereo not drawn) [Example 31, α-[(4-Chlorobenzenesulfonyl)((4-ethylaminocarbonylphenyl)methyl)amino]-2-methylbenzene-acetamide]
3 | 0.25 to 50 |  | NC(=O)C(c1cc(F)cc(F)c1)N(Cc1ccc(-c2ncon2)cc1)S(=O)(=O)c1ccc(Cl)cc1 (stereo not drawn) [Example 19]
4 | 0.25 to 50 |  | NC(=O)C(c1cc(F)cc(F)c1)N(Cc1ccc(F)cc1)S(=O)(=O)c1ccc(Cl)cc1 (stereo not drawn) [Example 14, α-[(4-Chlorobenzenesulfonyl)(4-fluorophenylmethyl)amino]-3,5-difluorobenzene-acetamide]
5 | 0.25 to 50 | 9.15 | NC(=O)C(c1cc(F)cc(F)c1)N(Cc1ccc(-n2cccn2)cc1)S(=O)(=O)c1ccc(Cl)cc1 (stereo not drawn) [Example 12, α-[(4-Chlorobenzenesulfonyl)(4-pyrazolylphenylmethyl)amino]-3,5-difluorobenzene-acetamide]
6 | 0.25 to 50 |  | Cc1nc(-c2ccc(CN(C(C(N)=O)c3cc(F)cc(F)c3)S(=O)(=O)c3ccc(Cl)cc3)cc2)no1 (stereo not drawn) [Example 18]

The remaining lines, values behind:

Row | Compound | IC50 [1] [nM] | IC50 [2] [nM]
7 | NC(=O)C(c1cc(F)cc(F)c1)N(Cc1ccc(C(=O)O)cc1)S(=O)(=O)c1ccc(Cl)cc1 (stereo not drawn) [Example 2, α-[(4-Chlorobenzenesulfonyl)((4-carboxyphenyl)methyl)amino]-3,5-difluorobenzene-acetamide] | 50 to 500 | 116
8 | NC(=O)C(c1cc(F)cc(F)c1)N(Cc1ccc(-n2cncn2)cc1)S(=O)(=O)c1ccc(Cl)cc1 (stereo not drawn) [Example 11, α-[(4-Chlorobenzenesulfonyl)(4-(1,2,4-triazolyl)-phenylmethyl)amino]-3,5-difluorobenzene-acetamide] | 0.25 to 50 | 
9 | CCNC(=O)c1ccc(CN(C(C(N)=O)c2cc(F)cc(F)c2)S(=O)(=O)c2ccc(Cl)cc2)cc1 (stereo not drawn) [Example 3, α-[(4-Chlorobenzenesulfonyl)((4-ethylaminocarbonylphenyl)methyl)amino]-3,5-difluorobenzeneacetamide] | 0.25 to 50 | 1.28
10 | CC(C)(C)NC(=O)c1ccc(CN(C(C(N)=O)c2cc(F)cc(F)c2)S(=O)(=O)c2ccc(Cl)cc2)cc1 (stereo not drawn) [Example 4, α-[(4-Chlorobenzenesulfonyl)(4-t-butylaminocarbonylphenylmethyl)amino]-3,5-difluorobenzeneacetamide] | 0.25 to 50 | 
11 | CNC(=O)c1ccc(CN(C(C(N)=O)c2cc(F)cc(F)c2)S(=O)(=O)c2ccc(Cl)cc2)cc1 (stereo not drawn) [Example 6, α-[(4-Chlorobenzenesulfonyl)(4-methylaminocarbonylphenylmethyl)amino]-3,5-difluorobenzene-acetamide] | 0.25 to 50 | 
12 | CCN1CCc2cc(CN(C(C(N)=O)c3cc(F)cc(F)c3)S(=O)(=O)c3ccc(Cl)cc3)ccc2C1=O (stereo not drawn) [Example 9, α-[(4-Chlorobenzenesulfonyl)(1-oxo-2-ethyl-1,2,3,4-tetrahydroisoquinolin-6-ylmethyl)amino]-3,5-difluorobenzeneacetamide] | 0.25 to 50 | 
13 | NC(=O)C(c1cc(F)cc(F)c1)N(Cc1ccc(C(=O)N2CCC2)cc1)S(=O)(=O)c1ccc(Cl)cc1 (stereo not drawn) [Example 5, α-[(4-Chlorobenzenesulfonyl)(4-azetidinylcarbonylphenylmethyl)amino]-3,5-difluorobenzene-acetamide] | 0.25 to 50 | 
14 | NC(=O)C(c1cc(F)cc(F)c1)N(Cc1ccc(C(=O)NC2CCC2)cc1)S(=O)(=O)c1ccc(Cl)cc1 (stereo not drawn) [Example 8] | 0.25 to 50 | 0.93
15 | CC(C)(C)OC(=O)c1ccc(CN(C(C(N)=O)c2cc(F)cc(F)c2)S(=O)(=O)c2ccc(Cl)cc2)cc1 (stereo not drawn) [Example 1, α-[(4-Chlorobenzenesulfonyl)((4-t-butyloxycarbonylphenyl)methyl)amino]-3,5-difluorobenzeneacetamide] | 0.25 to 50 | 
